What was measured:
[1] = system: immunoadhesin-expressing CHO cells; assay: Fed-batch shake flask culture of immunoadhesin-expressing CHO cells: N-glycan (HILIC-UPLC) and ProG titer; type: cell-based, Chinese hamster; conditions: for Titer: Day 14 harvest; for % afucose / % charged / % galactosylation: fed-batch shake flask; for % afucose levels: addition to fed-batch shake flask cultures
Experimental: FIG. 3A and FIG. 3B. Effect of hypoxanthine and guanine on the growth (FIG. 3A) and viability (FIG. 3B) of fed-batch shake flask cultures of immunoadhesin-expressing CHO cells. Copper (II) sulfate was delivered as part of the 5×-concentrated DMEM/F12 feed media at a concentration of 1 mM in the feed media. The Day 14 final concentration of CuSO4 in the culture was 0.2 mM due to 20% feeding. Hypoxanthine was delivered as a 1 mM bolus from a 200 mM stock solution on Day 6 after the temperature shift. Guanine was delivered as a 0.2 mM bolus from a 100 mM stock solution on Day 6 after the temperature shift.
FIG. 4A and FIG. 4B. Effect of copper (II) sulfate on the growth (FIG. 4A) and viability (FIG. 4B) of fed-batch shake flask cultures of immunoadhesin-expressing CHO cells. Copper (II) sulfate was delivered as part of the 5×-concentrated DMEM/F12 feed media at a concentration of 1 mM in the feed media. The Day 14 final concentration of CuSO4 in the culture was 0.2 mM, due to 20% feeding. Alternatively, copper (II) sulfate was delivered as 0.2 mM and 0.5 mM boli on Day 6 from a stock solution.
Cell culture methods: Cells were thawed and maintained as in a previous report (Kshirsagar, et al. 2012 Biotechnol Bioeng, Huang, et al. Biotechnology Progress 26(5):1400-1410 (2010)). Basal medium for thaw and passing was the same as in previous reports (Kshirsagar/Huang). Briefly, cells were thawed and maintained in 3 L shake flasks (Corning Life Sciences, Corning, N.Y.) with 1 L working volumes and were passaged every 2-3 days. For maintenance cultures the incubator was controlled at 37° C. and 5% CO2. […]
(§1) Copper (II) sulfate, hypoxanthine, guanine, glucosamine, and galactose were delivered to two different immunoadhesin-expressing CHO cell cultures either as part of the feed media or as boli from distinct stock solutions. The typical culture process is a 14-day process that consists of a growth phase from Day 0 to Day 6 at 37° C. and a protein production phase from Day 6 to Day 14 at 30° C.

[2] = system: immunoadhesin-expressing CHO cells; assay: 3 L fed-batch bioreactor culture of immunoadhesin-expressing CHO cells: N-glycan (HILIC-UPLC), TSA and ProG titer; type: cell-based, Chinese hamster
Experimental: FIG. 5A and FIG. 5B. […] Copper (II) sulfate was delivered as part of the 5×-concentrated DMEM/F12 feed media at a concentration of 1 mM in the feed media. The Day 14 final concentration of CuSO4 in the culture was 0.25 mM, due to 25% feeding. In the CuSO4, glucosamine, and galactose combination conditions, copper (II) sulfate was delivered as part of the 5×-concentrated DMEM/F12 feed media at a concentration of 1 mM in the feed media. The Day 14 final concentration of CuSO4 in the culture was 0.22 mM, due to 22% feeding. Glucosamine was delivered as two 10 mM boli, each on Day 6 and Day 8. Galactose was delivered as part of the 5×-concentrated DMEM/F12 feed media from Day 6-14 at a concentration of 20 g/L in the feed. The Day 14 final concentration of galactose was 2.4 g/L, due to 12% feeding from Day 6-14. In the CuSO4 and hypoxanthine condition, copper (II) sulfate and hypoxanthine were delivered as part of the 5×-concentrated DMEM/F12 feed media at a concentration of 1 mM and 3 mM, respectively, in the feed media. The Day 14 final concentrations of CuSO4 and hypoxanthine in the culture were 0.23 mM and 0.7 mM, due to 23% feeding.
Bioreactor culture conditions: Fed batch cultures were performed in 5 L glass Applikon vessels using Finesse TruBio DV controllers (Finesse Solutions, San Jose, Calif.) with an initial working volume between 2-2.5 L. Bioreactors were seeded at constant seed density of 4×10^5 cells/ml. Concentrated feed medium was delivered on days 3, 5, and every day or every other day following through harvest. Temperature was maintained at 35° C. or 36° C. and pH was controlled at 7.1+/−0.2 by the addition of either 1 M sodium carbonate or carbon dioxide. Dissolved oxygen was maintained at 30%-40% by air and oxygen sparge using a drilled hole sparger. Agitation was maintained between 200-400 RPM throughout the culture to limit total gas flow, while an overlay was maintained between 0.005 and 0.04 vvm.
(§2) Offline analysis: Samples were taken on most days and analyzed with a variety of equipment. Cell density and viability were measured using the standard technique of trypan blue exclusion using a Cedex (Roche Innovatis AG, Germany). Cell viability and growth rate of the various cultures were measured during the culture time course at specific days post-inoculation.
as §1

CHO-043 cells = assay: CHO-043 fed-batch shake flask culture: N-glycan (HILIC-UPLC), sialylation and ProG titer of the expressed immunoadhesin; type: cell-based, Chinese hamster
Experimental: FIG. 1A and FIG. 1B. Effect of glucosamine and galactose on the growth (FIG. 1A) and viability (FIG. 1B) of fed-batch shake flask cultures. Glucosamine was delivered as two 10 mM boli, each on Day 2 and Day 4 in both the glucosamine alone condition and the glucosamine/galactose combination condition. […] The Day 14 final concentration of galactose was 6 g/L, due to 30% feeding. Cell line: The cell line used in this study produced a growth factor receptor immunoadhesin polypeptide. The cell line was constructed using DG44 adapted to grow in serum-free medium (Prentice, 2007). The cell line DUXB11 was also used in this study. Cell culture methods: Cells were thawed and maintained as in a previous report ([…] al. 2012 Biotechnol Bioeng, Huang, et al. Biotechnology Progress 26(5):1400-1410 (2010)). Basal medium for thaw and passing was the same as in previous reports ([…]). Briefly, cells were thawed and maintained in 3 L shake flasks (Corning Life Sciences, Corning, N.Y.) with 1 L working volumes and were passaged every 2-3 days. For maintenance cultures the incubator was controlled at 37° C. and 5% CO2. Offline analysis: Samples were taken on most days and analyzed with a variety of equipment. Cell density and viability were measured using the standard technique of trypan blue exclusion using a Cedex (Roche Innovatis AG, Germany). Cell viability and growth rate of the various cultures were measured during the culture time course at specific days post-inoculation. […] The typical culture process is a 14-day process that consists of a growth phase from Day 0 to Day 6 at 37° C. and a protein production phase from Day 6 to Day 14 at 30° C. [table]

CHO-602 = CHO-602 fed-batch shake flask culture: N-glycan (HILIC-UPLC), sialylation and ProG titer; type: cell-based, Chinese hamster; conditions: for % NGNA / % afucose / TSA (mol/chain): Day 12, GlcN 10 mM bolus D6, combination: plus galactose 20 g/L in feed (4 g/L final)
Experimental: FIG. 2A and FIG. 2B. Effect of glucosamine and galactose on the growth (FIG. 2A) and viability (FIG. 2B) of fed-batch shake flask cultures of immunoadhesin-expressing CHO cells. Glucosamine was delivered as 10 mM boli on Day 6 for the 10 mM conditions and again on Day 8 for the 20 mM condition. In the glucosamine and galactose combination conditions, galactose was delivered as part of the 5×-concentrated DMEM/F12 feed media at a concentration of 20 g/L in the feed. The Day 14 final concentration of galactose was 4 g/L, due to 20% feeding.
FIG. 6A and FIG. 6B. Effect of copper (II) sulfate and Hypoxanthine-Thymidine (HT) supplement on the growth (FIG. 6A) and viability (FIG. 6B) of immunoadhesin-expressing CHO cells in fed-batch shake flasks. […] Copper (II) sulfate, hypoxanthine, and thymidine were delivered as part of the 5×-concentrated DMEM/F12 feed media at a concentration of 1 mM, 1 mM, and 0.16 mM respectively in the feed media for the HT Low condition and 1 mM, 3 mM, and 0.5 mM respectively in the feed media for the HT High condition. The Day 14 final concentration of CuSO4, hypoxanthine, and thymidine in the culture was 0.30 mM, 0.30 mM, and 0.05 mM respectively for the HT Low condition and 0.30 mM, 1 mM, and 0.16 mM respectively for the HT High condition due to 30% feeding.
Cell culture methods: Cells were thawed and maintained as in a previous report (Kshirsagar, et al. 2012 Biotechnol Bioeng, Huang, et al. Biotechnology Progress 26(5):1400-1410 (2010)). Basal medium for thaw and passing was the same as in previous reports (Kshirsagar/Huang). Briefly, cells were thawed and maintained in 3 L shake flasks (Corning Life Sciences, Corning, N.Y.) with 1 L working volumes and were passaged every 2-3 days. For maintenance cultures the incubator was controlled at 37° C. and 5% CO2.
as §2, §1

FcγRIIIa = assay: % FcγRIIIa binding of purified product relative to Enbrel innovator material; conditions: for % FcγRIIIa: Day 14 product, ProA and HIC purified, relative to Enbrel innovator material, hypoxanthine 1 mM or guanine 0.2 mM bolus D6; for levels of FcγRIIIa binding: addition to fed-batch shake flask cultures
[3] = feed supp. w/1 mM CuSO4 (0.2 mM final Day 14), Day 12
[4] = Day 14, CuSO4 1 mM in feed (0.25 mM final; 0.22 mM in combination), GlcN two 10 mM boli D6, D8, galactose 2.4 g/L final
[5] = Day 12, GlcN two 10 mM boli D2, D4, combination: plus galactose 20 g/L in feed (6 g/L final)
[6] = Day 12, GlcN two 10 mM boli D2, D4, combination: plus galactose 20 g/L in feed (6 g/L final), listed as glucosamine
[7] = ExptA, ProG, hypoxanthine 1 mM or guanine 0.2 mM bolus D6
[8] = ExptA, Day 14, hypoxanthine 1 mM or guanine 0.2 mM bolus D6
[9] = ExptB, ProG, hypoxanthine 1 mM or guanine 0.2 mM bolus D6
[10] = ExptB, Day 14, hypoxanthine 1 mM or guanine 0.2 mM bolus D6

O=S(=O)([O-])[O-].[Cu+2] [CuSO4, copper (II) sulfate]
Titer ([1]; 0.2 mM CuSO4 D6 bolus): 1.9 g/L | % afucose ([1]; 0.2 mM CuSO4 D6 bolus, Day 12): 8.2% | % charged ([1]; 0.2 mM CuSO4 D6 bolus, Day 12): 42.1% | % galactosylation ([1]; 0.2 mM CuSO4 D6 bolus, Day 12): 70.3% | Titer ([1]; 0.5 mM CuSO4 D6 bolus): 1.9 g/L | % afucose ([1]; 0.5 mM CuSO4 D6 bolus, Day 12): 8.2% | % charged ([1]; 0.5 mM CuSO4 D6 bolus, Day 12): 42.4% | % galactosylation ([1]; 0.5 mM CuSO4 D6 bolus, Day 12): 68.5% | % afucose, % galactosylation, and % charged levels of N-linked glycosylation ([1]; copper (II) sulfate alone, shake flask): toward values associated with a comparator polypeptide | Titer ([1]; feed supp. w/1 mM CuSO4 (0.2 mM final Day 14)): 1.8 g/L | % afucose [1, 3]: 8.4% | % charged [1, 3]: 43.7% | % galactosylation [1, 3]: 62.7% | % NGNA [2, 4]: 0.7% | % afucose [2, 4]: 7.1% | % charged [2, 4]: 41.9% | % galact. [2, 4]: 65.4% | % α-gal [2, 4]: 0.4% | TSA (mol/chain) [2, 4]: 13.5 mol/chain | Titer ([2]; Day 14 harvest, CuSO4 1 mM in feed, combination with GlcN two 10 mM boli and galactose 2.4 g/L final): 2.0 g/L

N[C@H]1C(O)O[C@H](CO)[C@@H](O)[C@@H]1O (some centres unmarked) [GlcN, glucosamine]
% NGNA (CHO-043 cells; [5]): 3.8% | % afucose (CHO-043 cells; [5]): 1.7% | % α-gal (CHO-043 cells; [5]): 2.4% | TSA (mol/chain) (CHO-043 cells; [5]): 6.6 mol/chain | % α-gal (CHO-043 cells; [6]): reduced | TSA (mol/chain) (CHO-043 cells; [6]): 6 mol/chain | Titer (CHO-043 cells; Day 12 harvest, ProG, GlcN two 10 mM boli D2, D4, combination: plus galactose (6 g/L final)): 1.8 g/L | % NGNA (CHO-602): 1.3% | % afucose (CHO-602): 8.9% | TSA (mol/chain) (CHO-602): 11.1 mol/chain | % NGNA (CHO-602; listed as glucosamine): little effect | % afucose (CHO-602; listed as glucosamine): little effect | TSA (mol/chain) (CHO-602; listed as glucosamine): reduce sialylation | Titer (CHO-602; Day 14 harvest, ProG, GlcN 10 mM bolus D6, combination: plus galactose (4 g/L final)): 1.4 g/L

Nc1nc2nc[nH]c2c(=O)[nH]1 [Guanine, guanine]
Titer [1, 7]: 1.5 g/L | % afucose [1, 8]: 10.5% | Titer [1, 9]: 1.6 g/L | % afucose [1, 10]: 10.2% | % afucose levels [1]: no change | % FcγRIIIa (FcγRIIIa; ExptA): 92% | % FcγRIIIa (FcγRIIIa; ExptB): 121% | levels of FcγRIIIa binding (FcγRIIIa): within the range of a comparator polypeptide

O=c1[nH]cnc2nc[nH]c12 [Hypoxanthine, hypoxanthine]
Titer [1, 7]: 1.7 g/L | % afucose [1, 8]: 9.5% | Titer [1, 9]: 1.6 g/L | % afucose [1, 10]: 8.3% | % afucose levels [1]: no change | % FcγRIIIa (FcγRIIIa; ExptA): 85% | % FcγRIIIa (FcγRIIIa; ExptB): 122% | levels of FcγRIIIa binding (FcγRIIIa): within the range of a comparator polypeptide
